Common to all, as to format: in vivo
In experiment [1] the test system is Tobacco Budworm [Heliothis virescens (Fabricius)] eggs. The experiment in a line: Tobacco budworm egg test (TBW-E). The settings on record: percent in solution.
Experiment [2] concerns Aster Leafhopper [Macrosteles fascifrens (Stal)]. The experiment in a line: Aster leafhopper test (LH). The settings on record: adults/nymphs, 48 hours, percent in solution.
The subject of experiment [3] is Maize weevil [Sitophilus Zeamais (Motschulsky)]. Briefly: Maize weevil test (MW). The settings on record: adult weevils, treated corn seeds, 48 hours, percent in solution. Summed up:
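Adult weevils (10) were placed with four corn seeds that had been dipped 2-3 s in compound dissolved in 50:50 acetone:water, then dried, and held at about 25° C. Mortality was scored at 48 h. LC50 was taken from dosage-mortality curves and expressed as percent compound in solution, from a 0.01% top concentration.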

The test system of experiment [4] is Housefly [Musca domestica]. Briefly: Housefly insecticidal test (HF). The settings on record: per 25 female houseflies, 48 hours.
The test system of experiment [5] is Cabbage Looper [Trichoplusia ni (Hubner)]. The experiment in a line: Cabbage looper test (CL). The settings on record: second-instar larvae, 3-5 days, percent in solution.

The source of these data is patent US5089623A, “Certain imidate insecticides” (Imperial Chemical Industries Plc, priority 1990, dated 1992).

On to `CC(C)C(=Nc1ccc(F)c([N+](=O)[O-])c1)OCc1cccc(Oc2ccccc2)c1` [Compound 293], for which the “LC50 TBW E” value in experiment [1] was over 0.1%. Besides, the “LC50 LH” value in experiment [2] is given as over 0.05%. For the same compound, in experiment [3], the “LC50 MW” value was over 0.01%. Further, the “LC50 HF” value in experiment [4] stood at 19 µg. The “LC50 CL” value in experiment [5] is on record as 0.0045%.
Turning to `CC(C)C(=Nc1ccc(F)c(Cl)c1)OCc1cccc(Oc2ccc(Cl)cn2)c1` [Compound 527], in experiment [1], the “LC50 TBW E” value came out at 0.035%. Besides, the “LC50 LH” value in experiment [2] is reported as over 0.05%. The “LC50 MW” value in experiment [3] was over 0.01%. Also, the “LC50 HF” value in experiment [4] was 47 µg. Moreover, the “LC50 CL” value in experiment [5] was 0.00065%.
Taken in the same sequence, the figures for `CC(C)C(=Nc1ccc(C(F)(F)F)cc1)OCc1cccc(Cc2ccccc2)c1` [Compound 543] were over 0.1%, under 0.05%, over 0.01%, under 100 µg and 0.0008%.
On to `Cc1cc(N=C(OCc2ccc(F)c(Oc3ccccc3)c2)C(C)C)ccc1Br` [Compound 358], for which, in experiment [1], the “LC50 TBW E” value is given as over 0.1%. Further, the “LC50 LH” value in experiment [2] is under 0.05%. Also, in experiment [3], the “LC50 MW” value is given as over 0.01%. In experiment [4], the “LC50 HF” value is under 100 µg. For the same compound, in experiment [5], the “LC50 CL” value was over 0.1%.
Turning to `CC(C)C(=Nc1ccc(Br)c(C(F)(F)F)c1)OCc1ccc(F)c(Oc2ccc(F)cc2)c1` [Compound 364], the “LC50 TBW E” value in experiment [1] was determined as 0.025%. Further, the “LC50 LH” value in experiment [2] is under 0.05%. Further, the “LC50 MW” value in experiment [3] was over 0.01%. Besides, in experiment [4], the “LC50 HF” value was under 100 µg. Further, in experiment [5], the “LC50 CL” value is reported as 0.00045%.
Consider `COc1ccc(N=C(OCc2cccc(Oc3ccccc3)c2)C(C)C)cc1` [Compound 160], for which, in experiment [1], the “LC50 TBW E” value is 0.09%. For the same compound, the “LC50 LH” value in experiment [2] is recorded as 0.05%. Further, the “LC50 MW” value in experiment [3] is listed as over 0.01%. For the same compound, in experiment [4], the “LC50 HF” value was 7 µg. Further, the “LC50 CL” value in experiment [5] amounted to 0.005%.
As to `CCS(=O)(=O)c1ccc(N=C(OCc2cccc(Oc3ccccc3)c2)C(C)C)cc1Cl` [Compound 112], the “LC50 TBW E” value in experiment [1] was over 0.1%. Further, the “LC50 LH” value in experiment [2] is on record as over 0.05%. For the same compound, in experiment [3], the “LC50 MW” value is recorded as over 0.01%. For the same compound, the “LC50 HF” value in experiment [4] was over 100 µg. Further, in experiment [5], the “LC50 CL” value is recorded as 0.025%.
Take `CC(C)C(=Nc1ccc2c(c1)OCO2)OCc1cccc(Oc2ccc(Cl)cn2)c1` [Compound 532]: the “LC50 TBW E” value in experiment [1] is given as over 0.1%. Moreover, the “LC50 LH” value in experiment [2] is recorded as over 0.05%. Besides, the “LC50 MW” value in experiment [3] is on record as over 0.01%. Besides, in experiment [4], the “LC50 HF” value is over 100 µg. Further, in experiment [5], the “LC50 CL” value is under 0.1%.
Regarding `CC(C)C(=Nc1ccc(F)c(Cl)c1)OCc1cccc(Oc2ccccc2F)c1` [Compound 119], in experiment [1], the “LC50 TBW E” value came out at 0.048%. In experiment [2], the “LC50 LH” value turned out to be 0.0008%. Besides, the “LC50 MW” value in experiment [3] was over 0.01%. Moreover, the “LC50 HF” value in experiment [4] is 27 µg. In experiment [5], the “LC50 CL” value stood at 0.0007%.
`CC(C)C(=Nc1ccccc1Br)OCc1cccc(Oc2ccccc2)c1` [Compound 132]: the “LC50 TBW E” value in experiment [1] is on record as over 0.1%. Further, the “LC50 LH” value in experiment [2] is reported as over 0.05%. In addition, the “LC50 MW” value in experiment [3] is over 0.01%. Also, in experiment [4], the “LC50 HF” value came out at 65 µg. Further, the “LC50 CL” value in experiment [5] is reported as 0.025%.
In the case of `CC(C)C(=Nc1ccc(C(C)(C)C)cc1)OCc1cccc(Oc2ccccc2)c1` [Compound 153], in experiment [1], the “LC50 TBW E” value is recorded as 0.1%. Further, in experiment [2], the “LC50 LH” value is 0.0005%. The “LC50 MW” value in experiment [3] is over 0.01%. The “LC50 HF” value in experiment [4] is over 100 µg. The “LC50 CL” value in experiment [5] was determined as 0.004%.
The matching figures for `CSc1cccc(N=C(OCc2ccc(F)c(Oc3ccccc3)c2)C(C)C)c1` [Compound 362]: over 0.1%, over 0.05%, over 0.01%, under 100 µg and over 0.1%.
